# Measurements as given in US7964624B1, “Inhibitors of serine proteases” (priority 2005, dated 2011).
# Target: T1, HCV NS3 protease domain (Hepatitis C virus genotype 1b, UniProt Q9WMX2)
# T1 construct: The first 181 amino acids of NS3 (residues 1027-1207 of the viral polyprotein); hexa-histidine (C); made in house; host or cells: E. coli BL21/DE3 pLysS
# Assay: biochemical
# Details: Enzyme Assay 1 (HCV NS3 Protease Domain Peptide Cleavage Assay) activity, apparent Ki class
# T1 sequence (Q9WMX2 1027-1207, other chains not shown): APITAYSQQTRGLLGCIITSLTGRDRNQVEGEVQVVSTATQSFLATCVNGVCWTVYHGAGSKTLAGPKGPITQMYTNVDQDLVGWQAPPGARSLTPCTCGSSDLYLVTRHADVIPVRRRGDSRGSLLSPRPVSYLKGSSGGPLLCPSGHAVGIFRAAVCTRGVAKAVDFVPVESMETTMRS
row,Compound,Ki [nM]
1,CCC[C@H](NC(=O)[C@@H]1C[C@]2(CC(c3cccc(Cl)c3)=NO2)CN1C(=O)[C@@H](NC(=O)Cc1ccc(C)c(F)c1)C(C)(C)C)C(=O)C(=O)NC1CC1 [Compound 102],100 to 500
2,CCC[C@H](NC(=O)[C@@H]1C[C@]2(CC(c3cccc(Cl)c3)=NO2)CN1C(=O)[C@@H](NC(=O)NCC)C1CCCCC1)C(=O)C(=O)NC1CC1 [Compound 103],100 to 500
3,CCC[C@H](NC(=O)[C@@H]1C[C@]2(CC(c3cc(F)cc(F)c3)=NO2)CN1C(=O)[C@@H](NC(=O)O[C@H]1CCOC1)C(C)(C)C)C(=O)C(=O)NC1CC1 [Compound 106],> 500
4,CCC[C@H](NC(=O)[C@@H]1C[C@]2(CC(c3ccccc3)=NO2)CN1C(=O)[C@@H](NC(=O)NCc1ccccc1)C(C)(C)C)C(=O)C(=O)NC1CC1 [Compound 107],100 to 500
5,CCC[C@H](NC(=O)[C@@H]1C[C@]2(CC(c3cccc(Cl)c3)=NO2)CN1C(=O)[C@@H](NC(=O)[C@H]1CC[C@@H](OC)CC1)C(C)(C)C)C(=O)C(=O)NC1CC1 [Compound 108],100 to 500
6,CCC[C@H](NC(=O)[C@@H]1C[C@]2(CC(c3ccc(Cl)c(C)c3)=NO2)CN1C(=O)[C@@H](NC(=O)O[C@H]1CCOC1)C(C)(C)C)C(=O)C(=O)NC1CC1 [Compound 109],< 100
7,CCC[C@H](NC(=O)[C@@H]1C[C@]2(CC(c3cc(Cl)c(OC)cc3OC)=NO2)CN1C(=O)[C@@H](NC(=O)OCc1ccccc1)C(C)(C)C)C(=O)C(=O)NC1CC1 [Compound 110],100 to 500
8,CCC[C@H](NC(=O)[C@@H]1C[C@]2(CC(c3cccc(Cl)c3)=NO2)CN1C(=O)[C@@H](NC(=O)OCCc1ccc(F)cc1)C(C)(C)C)C(=O)C(=O)NC1CC1 [Compound 118],> 500
9,CCC[C@H](NC(=O)[C@@H]1C[C@]2(CC(c3cccc(Cl)c3)=NO2)CN1C(=O)[C@@H](NC(=O)NCc1cccc(F)c1)C(C)(C)C)C(=O)C(=O)NC1CC1 [Compound 122],100 to 500
10,CCC[C@H](NC(=O)[C@@H]1C[C@]2(CC(c3cccc(Cl)c3)=NO2)CN1C(=O)[C@@H](NC(=O)NCC)C(C)(C)C)C(=O)C(=O)NC1CC1 [Compound 123],< 100
11,CCC[C@H](NC(=O)[C@@H]1C[C@]2(CC(c3cccc(Cl)c3)=NO2)CN1C(=O)[C@@H](NC(=O)Nc1ccc(N2C(=O)C=CC2=O)cc1)C(C)(C)C)C(=O)C(=O)NC1CC1 [Compound 128],100 to 500
12,CCC[C@H](NC(=O)[C@@H]1C[C@]2(CC(c3cccc(Cl)c3)=NO2)CN1C(=O)[C@@H](NC(=O)c1cn(C(C)C)c2ccccc2c1=O)C(C)(C)C)C(=O)C(=O)NC1CC1 [Compound 135],> 500
13,CCC[C@H](NC(=O)[C@@H]1C[C@]2(CC(c3cccc(Cl)c3)=NO2)CN1C(=O)[C@@H](NC(=O)[C@](C)(O)c1ccccc1)C(C)(C)C)C(=O)C(=O)NC1CC1 [Compound 139],> 500
14,CCC[C@H](NC(=O)[C@@H]1C[C@]2(CC(c3cccc(Cl)c3)=NO2)CN1C(=O)[C@@H](NC(=O)CC1CCCCC1)C(C)(C)C)C(=O)C(=O)NCC [Compound 140],100 to 500
15,C=C[C@@H]1C[C@]1(NC(=O)[C@@H]1C[C@]2(CC(c3cccc(Cl)c3)=NO2)CN1C(=O)[C@@H](NC(=O)CC1CCCCC1)C(C)(C)C)C(=O)O [Compound 144],> 500
16,CCC[C@H](NC(=O)[C@@H]1C[C@]2(CC(C(=O)NCC)=NO2)CN1C(=O)[C@@H](NC(=O)O[C@H]1CCOC1)C(C)(C)C)C(=O)C(=O)NC1CC1 [Compound 146],> 500
17,CCC[C@H](NC(=O)[C@@H]1C[C@]2(CC(c3ccc4c(c3)CCC(C)(C)O4)=NO2)CN1C(=O)[C@@H](NC(=O)O[C@H]1CCOC1)C(C)(C)C)C(=O)C(=O)NC1CC1 [Compound 150],100 to 500
18,C=CCOC(=O)N[C@H](C(=O)N1C[C@@]2(CC(c3ccccc3)=NO2)C[C@H]1C(=O)N[C@@H](CCC)C(=O)C(=O)NC1CC1)C(C)(C)C [Compound 151],100 to 500
19,CCC[C@H](NC(=O)[C@@H]1C[C@]2(CC(c3cccc(Cl)c3)=NO2)CN1C(=O)[C@@H](NC(=O)OCC1CCOC1)C(C)(C)C)C(=O)C(=O)NC1CC1 (stereo partly drawn) [Compound 152],100 to 500
20,C=CCOC(=O)N[C@H](C(=O)N1C[C@@]2(CC(c3ccc(F)cc3)=NO2)C[C@H]1C(=O)N[C@@H](CCC)C(=O)C(=O)NC1CC1)C(C)(C)C [Compound 154],100 to 500
21,CCC[C@H](NC(=O)[C@@H]1C[C@]2(CC(c3cccc(Cl)c3)=NO2)CN1C(=O)[C@@H](NC(=O)Cc1cc(F)ccc1C)C(C)(C)C)C(=O)C(=O)NC1CC1 [Compound 155],> 500
22,CCC[C@H](NC(=O)[C@@H]1C[C@]2(CC(c3cccc(Cl)c3)=NO2)CN1C(=O)[C@@H](NC(=O)NCC(C)C)C(C)(C)C)C(=O)C(=O)NC1CC1 [Compound 156],< 100
23,CCC[C@H](NC(=O)[C@@H]1C[C@]2(CC(c3cccc(Cl)c3)=NO2)CN1C(=O)c1cc2cc(OC)c(OC)cc2[nH]1)C(=O)C(=O)NC1CC1 [Compound 157],> 500
24,CCC[C@H](NC(=O)[C@@H]1C[C@]2(CC(c3cccc(Cl)c3)=NO2)CN1C(=O)[C@@H](NC(=O)OCCc1ccsc1)C(C)(C)C)C(=O)C(=O)NC1CC1 [Compound 159],100 to 500

row,Compound,Ki [nM]
1,CCC[C@H](NC(=O)[C@@H]1C[C@]2(CC(c3cccc(Cl)c3)=NO2)CN1C(=O)[C@@H](NC(=O)c1cc(NC(C)=O)sc1C(C)=O)C(C)(C)C)C(=O)C(=O)NC1CC1 [Compound 161],> 500
2,CCC[C@H](NC(=O)[C@@H]1C[C@]2(CC(c3ccccc3Cl)=NO2)CN1C(=O)[C@@H](NC(=O)OCc1ccccc1)C(C)(C)C)C(=O)C(=O)NC1CC1 [Compound 164],> 500
3,CCC[C@H](NC(=O)[C@@H]1C[C@]2(CC(c3ccc(OC)cc3OC)=NO2)CN1C(=O)[C@@H](NC(=O)CC1CCCCC1)C(C)(C)C)C(=O)C(=O)NC1CC1 [Compound 166],100 to 500
4,CCC[C@H](NC(=O)[C@@H]1C[C@]2(CC(c3cccc(Cl)c3)=NO2)CN1C(=O)[C@@H](NC(=O)OCc1cccnc1C)C(C)(C)C)C(=O)C(=O)NC1CC1 [Compound 167],100 to 500
5,CCC[C@H](NC(=O)[C@@H]1C[C@]2(CC(c3cccc(Cl)c3)=NO2)CN1C(=O)[C@@H](NC(=O)OCc1cccc(C)c1)C(C)(C)C)C(=O)C(=O)NC1CC1 [Compound 174],100 to 500
6,CCC[C@H](NC(=O)[C@@H]1C[C@]2(CC(c3ccc(Br)o3)=NO2)CN1C(=O)[C@@H](NC(=O)CC1CCCCC1)C(C)(C)C)C(=O)C(=O)NC1CC1 [Compound 179],100 to 500
7,CCC[C@H](NC(=O)[C@@H]1C[C@]2(CC(C)=NO2)CN1C(=O)[C@@H](NC(C)=O)C(C)(C)C)C(=O)C(=O)NC1CC1 [Compound 180],> 500
8,CCC[C@H](NC(=O)[C@@H]1C[C@]2(CC(c3cccc(Cl)c3)=NO2)CN1C(=O)[C@@H](NC(=O)[C@H](OC)c1ccccc1)C(C)(C)C)C(=O)C(=O)NC1CC1 [Compound 187],> 500
9,CCC[C@H](NC(=O)[C@@H]1C[C@]2(CC(c3cccc(Cl)c3)=NO2)CN1C(=O)[C@@H](NC(=O)CCc1cccc(OC)c1)C(C)(C)C)C(=O)C(=O)NC1CC1 [Compound 189],> 500
10,CCC[C@H](NC(=O)[C@@H]1C[C@]2(CC(c3cc(C)c(OC)c(C)c3)=NO2)CN1C(=O)[C@@H](NC(=O)O[C@H]1CCOC1)C(C)(C)C)C(=O)C(=O)NC1CC1 [Compound 191],> 500
11,CCC[C@H](NC(=O)[C@@H]1C[C@]2(CC(c3cccc(Cl)c3)=NO2)CN1C(=O)[C@@H](NC(=O)OC(C)C)C(C)(C)C)C(=O)C(=O)NC1CC1 [Compound 193],100 to 500
12,CCCC(NC(=O)[C@@H]1C[C@]2(CC(c3ccc(OC)c(OC)c3)=NO2)CN1C(=O)[C@@H](NC(=O)O[C@H]1CCOC1)C(C)(C)C)C(=O)C(=O)NC1CC1 (stereo partly drawn) [Compound 196],100 to 500
13,CCC[C@H](NC(=O)[C@@H]1C[C@]2(CC(c3cccc(Cl)c3)=NO2)CN1C(=O)[C@@H](NC(=O)Oc1ccc2c(c1)OCO2)C(C)(C)C)C(=O)C(=O)NC1CC1 [Compound 197],100 to 500
14,CCC[C@H](NC(=O)[C@@H]1C[C@]2(CC(c3c4ccccc4cc4ccccc34)=NO2)CN1C(=O)[C@@H](NC(=O)OCc1ccccc1)C(C)(C)C)C(=O)C(=O)NC1CC1 [Compound 199],> 500
15,CCC[C@H](NC(=O)[C@@H]1C[C@]2(CC(c3ccccc3)=NO2)CN1C(=O)[C@@H](NC(=O)O[C@H]1CCOC1)C(C)(C)C)C(=O)C(=O)NC1CC1 [Compound 202],> 500
16,CCC[C@H](NC(=O)[C@@H]1C[C@]2(CC(c3cccc(Cl)c3)=NO2)CN1C(=O)[C@@H](NC(=O)OCc1cc(F)cc(F)c1)C(C)(C)C)C(=O)C(=O)NC1CC1 [Compound 203],100 to 500
17,CCC[C@H](NC(=O)[C@@H]1C[C@]2(CC(c3cccc(Cl)c3)=NO2)CN1C(=O)CNC(=O)NCc1ccccc1)C(=O)C(=O)NC1CC1 [Compound 205],> 500
18,CCC[C@H](NC(=O)[C@@H]1C[C@]2(CC(c3cccc(Cl)c3)=NO2)CN1C(=O)CNC(=O)OCC)C(=O)C(=O)NC1CC1 [Compound 207],> 500
19,CCC[C@H](NC(=O)[C@@H]1C[C@]2(CC(c3cccc(Cl)c3)=NO2)CN1C(=O)[C@@H](NC(=O)OCc1cccc(F)c1)C(C)(C)C)C(=O)C(=O)NC1CC1 [Compound 209],100 to 500
20,CCC[C@H](NC(=O)[C@@H]1C[C@]2(CC(c3cc(Cl)c(OC)cc3OC)=NO2)CN1C(=O)OCc1ccccc1Cl)C(=O)C(=O)NC1CC1 [Compound 210],> 500
21,CCC[C@H](NC(=O)[C@@H]1C[C@]2(CC(c3cccc(Cl)c3)=NO2)CN1C(=O)[C@@H](Nc1cccc(OC)c1)C(C)(C)C)C(=O)C(=O)NC1CC1 [Compound 214],> 500
22,CCC[C@H](NC(=O)[C@@H]1C[C@]2(CC(c3cc(F)c(F)c(F)c3)=NO2)CN1C(=O)[C@@H](NC(=O)O[C@H]1CCOC1)C(C)(C)C)C(=O)C(=O)NC1CC1 [Compound 215],100 to 500
23,CCC[C@H](NC(=O)[C@@H]1C[C@]2(CC(c3cccc(Cl)c3)=NO2)CN1C(=O)[C@@H](NC(=O)C1CC(=O)N(Cc2cccs2)C1)C(C)(C)C)C(=O)C(=O)NC1CC1 (stereo partly drawn) [Compound 216],> 500
24,CC(C)(C)[C@H](NC(=O)CC1CCCCC1)C(=O)N1C[C@@]2(CC(c3cccc(Cl)c3)=NO2)C[C@H]1C(=O)NC(CC1CCC1)C(=O)C(N)=O (stereo partly drawn) [Compound 217],< 100
